Reference: patent US8236337B2, “Anti-microbial orthodontic compositions and appliances and methods of production and use thereof” (Selenium, Ltd., priority 2005, dated 2012)

System: not listed separately
Assay: Superoxide radical generation by selenium modified bonding agent coated on a surface, measured by chemiluminescence; leaching check of soak water
Conditions: mixed with AAEMA to final selenium concentration of 5%, coated on PMMA plastic or human toenail and dried
Procedure: In this hydrophobic mixing experiment, a selenium compound comprising a CN protecting group [2-(selenocyanatoacetoxy)butoxyethyl methacrylate] was mixed with the bonding agent 2-(Acetoacetoxy)ethylmethacrylate (AAEMA) to a final selenium concentration of 5%. The selenium composition was then applied to a surface, such as a PMMA plastic or a human toenail (results with both surfaces were the same), preferably at a concentration of about 100 mg/cm^2. The ability of the selenium modified bonding agent to generate superoxide radicals was then measured by chemiluminescence, as shown in FIG. 1. In FIG. 1, “Crude 1” and “Crude 2” refer to a mixture of the selenium labeled material with AAEMA; “pure” refers to the pure selenium labeled compound (no AAEMA); “blank” refers to the AAEMA with no selenium; for “plastic removed”, the mixture-coated plastic was soaked in water, and then after removal of the plastic, the aqueous solution was tested for any selenium that may have come off.

| Compound | ability to generate superoxide radicals (chemiluminescence) |
| --- | --- |
| C=C(C)C(=O)OCCOCC(CC)OC(=O)C[Se]C#N (centres unmarked) [2-(selenocyanatoacetoxy)butoxyethyl methacrylate] | still demonstrating chemiluminescence |

Same assay, conditions: mixture-coated plastic soaked in water, aqueous solution tested by chemiluminescence after removal of plastic

| Compound | leaching of selenium from coated plastic ("plastic removed" sample) |
| --- | --- |
| C=C(C)C(=O)OCCOCC(CC)OC(=O)C[Se]C#N (centres unmarked) [2-(selenocyanatoacetoxy)butoxyethyl methacrylate] | no significant leaching |

System: Biofilm formation
Assay: Inhibition of biofilm formation by selenium compounds (Example 4)
Assay type: cell-based
Set-up: Percent inhibition of Biofilm formation: concentration or dose not given beside the values
Conditions: not given

| Compound | Biofilm formation, log reduction | Percent inhibition of Biofilm formation |
| --- | --- | --- |
| 3,4-Bis(selenyl)2-hydroxy propanol | 8 logs | 100% |
| 3,4-Bis(selenyl)ethanoic acid | 8 logs | 100% |
| 3,4-Bis(selenyl)propionic acid | 2 logs | 99% |
| C1CCC(C[Se][Se]CC2CCCCC2)CC1 [1,2-Bis(cyclohexylmethyl)diselenide] | – | 98% |
| c1ccc([Se][Se]c2ccccc2)cc1 [1,2-Bis(phenyl)diselenide] | 8 logs | 100% |
| N#C[Se]CCN [1-amino,2-selenocyanato ethane] | 5 logs | 99.999% |
| CC(O)C(O)[Se]C#N (centres unmarked) [1-selenocyanato,2-hydroxy propanol] | 8 logs | 100% |
| C=C(C)C(=O)OCCOC(=O)CC(C)OC(=O)CC[Se][Se]CCC(=O)OC(C)CC(=O)OCCOC(=O)C(=C)C (centres unmarked) [3-[3-(2-{1-Methyl-2-[2-(2-methyl-acryloyloxy)-ethoxycarbonyl]-ethoxycarbonyl}-ethyldiselenyl)-propionyloxy]-butyric acid 2-(2-methyl-acryloyloxy)-ethyl ester] | 8 logs | 100% |
| CC(NC(=O)OCC1c2ccccc2-c2ccccc21)[Se]C#N (centres unmarked) [Fmoc-1-amino,1-selenocyanato ethane] | 8 logs | 100% |
| Cl.Cl.NCC[Se][Se]CCN [Selenocystamine 2HCl] | 5 logs | 99.999% |
| NCC[Se-].[Na+] [Sodium 1-amino,2-seleno ethane] | 3 logs | 99.9% |
